Assay results taken from patent US6610657B1, “Alkyl peptide amides and applications” (Promega Corporation, priority 1996, dated 2003).
Each block holds one molecule with its values, some of them ahead of it. *: point of attachment. Stearyl = stearyl group; stearyl = stearyl group; sulfo = O=S(=O)(O)*

Legend:
[1] = system: PKA in bovine caudal and caput sperm; experiment: PKA activity of bovine caudal and caput sperm after treatment; assay type: cell-based; conditions: 50 μM
Procedure: PKA Activity. PKA activity was assayed as previously described (Carr et al., J. Biol. Chem. 268:20729-20732, 1993) with minor changes. Whole caput or caudal sperm were treated with 2-chloro-2′-deoxyadenosine (50 μM), H-89 (50 μM), or both for 30 min. at 37° C. The sperm were then washed twice in ice cold homogenization buffer supplemented with protease inhibitors, benzamidine (10 mM), leupeptin (4 μg/ml), and N-tosyl-L-phenylalanine chloromethyl ketone (TPCK) (100 μM), and sonicated for one min. Reaction mixtures (20 microliters (μl) total) contained 250 μM Kemptide (i.e., LRRASLG), 250 μM (γ^32P) ATP, 25 mM Na3VO4, 50 mM 3-[N-morpholino] propanesulfonic acid (MOPS) (pH=7.0), 10 mM MgCl2, 0.25 mg/ml BSA and where indicated, 10 μM cAMP. Assays were initiated by addition of labeled ATP, incubated for 2 min at 30° C., and stopped by addition of 30 μl of 1 N HCl. Twenty μl of the reaction was then spotted on phosphocellulose paper followed by three washes in 75 mM phosphoric acid. The papers were then analyzed by Cerenkov counting. All determinations were made in quadruplicate.
In previous reports, initiation or stimulation of sperm motility by CDA was associated with an elevation of cAMP and an increase in PKA activity was assumed (Vijayaraghavan and Hoskins, Biol. Reprod. 34:468-77, 1986). […] Bovine sperm were incubated as described for FIGS. 14 and 15 and then assessed for PKA activity. […]

[2] = system: bovine caudal epididymal sperm; experiment: Bovine sperm motility (CASMA, forward motility index); assay type: cell-based
Procedure: (§1) Sperm Preparation. Testes from mature bulls with intact tunica were obtained from a local slaughterhouse and sperm from caput or caudal epididymis were isolated and washed as previously described (Vijayaraghavan et al., Biol. Reprod. 32:489-500, 1985). The sperm were resuspended in buffer A (120 mM NaCl, 10 mM KCl, 10 mM Tris[hydroxymethyl]aminomethane (TRIS), pH 7.4) supplemented with 10 mM glucose and 10 mg/ml bovine serum albumin (BSA) for motility measurements. Monkey semen was obtained by electro-ejaculation and processed by procedures previously reported (Smith et al., Biol. Reprod. 54:719-727, 1996). Human semen samples were obtained from a fertility clinic at the Oregon Health Sciences University.
(§2) Sperm Motility Measurement. Head motility parameters were determined as previously described (Vijayaraghavan et al., Biol. Reprod. 54:709-718, 1996; Stephens et al., Biol. Reprod. 38:577-586, 1988). A 3-4 μL aliquot of sperm suspension (5×10^7/ml) was loaded onto a counting chamber at 37° C. After bulk fluid movement had subsided, six different locations on the slide were recorded. The videotaped segments were analyzed by a computerized image-analysis system (CASMA) as previously described (Vijayaraghavan et al., Biol. Reprod. 54:709-718, 1996; Stephens et al., Biol. Reprod. 38:577-586, 1988). This computer system measured several parameters of head motion, including forward motility. The forward Motility Index (FMI) was used as the measure of motility. FMI is a product of percent motile (%M, percent of sperm moving at velocity greater than 20 mm/sec) and average velocity (Va, the five-point smoothed average of the head positions through analysis of at least twenty frames).

[3] = system: sperm; assay type: cell-based
Procedure: In the first such experiment, the vital dyes SYBR-green and rhodamine 123 were added to sperm before and after treatment with s-Ht31 in order to determine whether s-Ht31 affects sperm viability or structural integrity. Only viable, intact cells normally take up such dyes.

[4] = system: RII binding to AKAP 110; experiment: RII overlay assay on bovine sperm AKAP; conditions: 20 μM peptide, densitometric scanning, FIG. 6
From the text: Western blotting and overlay assays. The overlay procedure is a modified Western blot procedure. Proteins were separated by SDS-polyacrylamide gel electrophoresis (SDS-PAGE) and transferred to a nylon membrane (Immobilon). After treatment with Blotto (Protein Methods, Bollag and Edelstein, eds., Wiley-Liss, New York, 1991) to prevent non-specific binding, radiolabelled RIIα or RIIβ probes were applied (Carr and Scott, Trends Biochem. Sci. 17:246-249, 1992). Recombinant RIIα was produced as previously described (Carr et al., J. Biol. Chem. 266:14188-14192, 1991; Carr et al., J. Biol. Chem. 267:13376-13382, 1992). RIIα and RIIβ were gifts from Dr. John Scott, Oregon Health Sciences University, Portland, Oreg. Two different variations of the overlay assay were used. In the first variation, recombinant RII radiolabeled by incubation with the catalytic subunit of PKA and γ^32P-ATP was used. After separation from free γ^32P-ATP, the ^32P-labeled RII (500,000 CPM/10 ml blotto) was incubated with the blocked blot for four hours followed by washing and autoradiography. […]
RII overlays were performed in the absence (lane 1) or presence of 20 μM Ht31, s-Ht31, or s-Ht31-P (lanes 2, 3 or 4, respectively). Addition of the three peptide species inhibited RII binding to AKAP110 by 100%, 85% and 0%, respectively, as determined by densitometric scanning analysis.

[5] = system: monkey ejaculated sperm; experiment: Monkey sperm motility; assay type: cell-based, rhesus monkey; conditions: increasing concentrations in neat semen, 37° C., 5 and 30 min, FIG. 11
Procedure: as §1
as §2, with “The forward Motility Index (FMI) was used as the measure of motility. FMI is a product of percent motile (%M, percent of sperm moving at velocity greater than 20 mm/sec) and average velocity (Va, the five-point smoothed average of the head positions through analysis of at least twenty frames).” left out

[6] = system: insulin receptor; conditions: intact CHO/HIRc cells; cited from earlier work
[7] = biological target: PP-1 (Homo sapiens, UniProt P62136); conditions: cited from earlier work
[8] = biological target: PP-2A (Homo sapiens, UniProt P67775); conditions: cited from earlier work
[9] = system: alkaline phosphatase; conditions: cited from earlier work
[10] = biological target: RII, 32P-labeled recombinant regulatory subunit of PKA (isoform not given) used as overlay probe; experiment: RII overlay of bovine sperm blot with 20 µM peptide, densitometric scanning
[11] = biological target: endogenous RII isoforms of sperm (bands at about 55 kDa); experiment: cell-based or functional assay

PP-2A, sequence (P67775 whole entry): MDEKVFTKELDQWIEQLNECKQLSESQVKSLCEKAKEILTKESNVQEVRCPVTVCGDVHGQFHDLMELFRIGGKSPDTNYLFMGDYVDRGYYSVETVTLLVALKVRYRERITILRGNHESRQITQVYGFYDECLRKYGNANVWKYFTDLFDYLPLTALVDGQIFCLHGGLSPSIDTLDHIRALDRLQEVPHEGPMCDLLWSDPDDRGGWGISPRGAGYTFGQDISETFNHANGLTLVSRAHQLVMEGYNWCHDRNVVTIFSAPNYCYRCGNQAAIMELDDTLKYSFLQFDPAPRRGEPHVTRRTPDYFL
PP-1, sequence (P62136 whole entry): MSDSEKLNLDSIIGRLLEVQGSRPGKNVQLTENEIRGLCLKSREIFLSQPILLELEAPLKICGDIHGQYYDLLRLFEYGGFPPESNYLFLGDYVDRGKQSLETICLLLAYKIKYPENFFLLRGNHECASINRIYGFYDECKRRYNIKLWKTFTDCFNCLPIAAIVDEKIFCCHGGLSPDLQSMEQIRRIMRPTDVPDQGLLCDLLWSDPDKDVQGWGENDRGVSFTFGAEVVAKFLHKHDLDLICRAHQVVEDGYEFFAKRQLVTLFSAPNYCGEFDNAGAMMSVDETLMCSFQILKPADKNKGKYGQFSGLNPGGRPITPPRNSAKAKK

Molecule: Nc1nc(Cl)nc2c1ncn2[C@H]1C[C@H](O)[C@@H](CO)O1 [CDA, 2-chloro-2′-deoxyadenosine]
Increase of basal PKA activity ([1]; 30 min at 37° C., both caudal and caput sperm): approximately 60%

Molecule: O=S(=O)(NCCNCC=Cc1ccc(Br)cc1)c1cccc2cnccc12 [H-89, N-[2-(p-bromocinnamylamino)ethyl]-5-isoquinoline-sulfonamide]
Effect on sperm motility stimulated by CDA ([2]; 50 μM H-89 added 15 min prior to 50 μM CDA): no effect
inhibition at 50 µM ([2]; Bos taurus, Sperm, 0.25 h, 50 μM, 15 min, FIG. 14, read-out: Inhibition of basal sperm motility): ≤ 50%
Effect on PKA activity of treated sperm ([1]; in the presence or absence of CDA, sperm washed before lysis): strongly inhibited PKA activity

Molecule: C[C@@H]1CC[C@@]2(OC1)O[C@H]1[C@@H](O)[C@H]3[C@@H]4CC[C@H]5C[C@@H](O[C@@H]6O[C@H](CO)[C@H](O[C@@H]7O[C@H](CO)[C@@H](O)[C@H](O[C@@H]8OC[C@@H](O)[C@H](O)[C@H]8O)[C@H]7O[C@@H]7O[C@H](CO)[C@H](O)[C@H](O[C@@H]8O[C@H](CO)[C@@H](O)[C@H](O)[C@H]8O)[C@H]7O)[C@H](O)[C@H]6O)[C@H](O)C[C@]5(C)[C@H]4CC[C@]3(C)[C@H]1[C@@H]2C [digitonin]
Release of BCECF or Fura 2 from loaded sperm [3]: caused release of these dyes

Molecule: CCCCCCCCCCCCCCCCCC(=O)N[C@@H](CC(=O)O)C(=O)N[C@@H](CC(C)C)C(=O)N[C@H](C(=O)N[C@@H](CCC(=O)O)C(=O)N[C@@H](CCC(=O)O)C(=O)N[C@@H](C)C(=O)N[C@@H](C)C(=O)N[C@@H](CO)C(=O)N[C@@H](CCCNC(=N)N)C(=O)N[C@H](C(=O)N[C@H](C(=O)N[C@@H](CC(=O)O)C(=O)N[C@@H](C)C(=O)N[C@H](C(=O)N[C@H](C(=O)N[C@@H](CCC(=O)O)C(=O)N[C@@H](CCC(N)=O)C(=O)N[C@H](C(=O)N[C@@H](CCCCN)C(=O)N[C@@H](C)C(=O)N[C@@H](C)C(=O)NCC(=O)N[C@@H](C)C(=O)N[C@@H](Cc1ccc(O)cc1)C(=O)O)C(C)C)[C@@H](C)CC)C(C)C)C(C)C)[C@@H](C)CC)[C@@H](C)CC [s-Ht31]
Effect on sperm viability / plasma membrane integrity (uptake of SYBR-green and rhodamine 123) [3]: did not decrease viability or disrupt the integrity of the sperm plasma membrane
Release of BCECF or Fura 2 from loaded sperm [3]: did not compromise the integrity of the plasma membrane

Inhibition of RII binding to AKAP110 [4]: 100%
Molecule: DLIEEAASRIVDAVIEQVKAAGAY (listed as Homo sapiens) [Ht31]

Molecule: Stearyl-DLIEEAASRPVDAVPEQVKAAGAY amide (Stearyl-DLIEEAASRPVDAVPEQVKAAGAY-NH2; listed as Homo sapiens) [s-Ht31-P]
Effect on sperm motility ([2]; concentrations up to 20 μM, 5 min): no effect

Molecule: Stearyl-YETLLIETASSLVKNAIQLSIE amide (Stearyl-YETLLIETASSLVKNAIQLSIE-NH2; listed as Homo sapiens) [s-AKAP79]
Effect on motility of monkey-ejaculate sperm [5]: inhibited sperm motility in a concentration- and time-dependent manner

Molecule: TRDIYETDYYRK-amide (Stearyl-TRDIY(sulfo)ETDY(sulfo)Y(sulfo)RK-NH2; not fully specified; printed as TRDIYETDYYRK-amide; listed as Homo sapiens)
Increase in insulin-stimulated receptor autophosphorylation [6]: 4.5 fold
Effect on activity of PP-1 [7]: did not have an effect
Effect on activity of PP-2A [8]: did not have an effect
Effect on activity of alkaline phosphatase [9]: did not have an effect

percent inhibition of RII binding to AKAP110 [10]: 0%
Molecule: stearyl-DLIEEAASRPVDAVPEQVKAAGAY-NH2 [s-Ht31-P: Stearyl-… amide]

percent inhibition of RII binding to AKAP110 [10]: 100%
Molecule: DLIEEAASRIVDAVIEQVKAAGAY [Ht31 (anchor inhibiting peptide, non-stearated)]

concentration of s-Ht31 needed to produce 50% inhibition of bovine sperm motility, five minutes post-treatment [11]: 1 µM
percent inhibition of RII binding to AKAP110 [10]: 85%
Molecule: Stearyl-DLIEEAASRIVDAVIEQVKAAGAY-NH2 (not fully specified) [s-Ht31: Stearyl-… amide]
